Active and inactive are the calls of the source.
How the values were obtained:
[1] = target: Voltage-dependent T-type calcium channel subunit alpha-1H (Homo sapiens, UniProt O95180); type: functional;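 further: channel activity triggered by adding a high calcium stimulation buffer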
[2] = target: T1, Beta-2 adrenergic receptor (Homo sapiens, UniProt P07550); assay: ADRB2 activation measured by internalization – cell-based, FAP fluorogen, flow cytometry, cherry pick 1, dose response (AID 588763); type: functional
[3] = target: T1, Beta-2 adrenergic receptor; assay: Dose response for HTS for Beta-2AR agonists via FAP method from Powderset3.; type: functional
[4] = Luminescence Cell-Based Dose Response HTS to Identify Activators of Luciferase Translation or Activity in H4-C Neuroglioblastoma Cells. [Related pubchem assays: 1829 (Project Summary), 1814 (Primary HTS)]; type: functional
[5] = Luminescence Cell-Based Dose Retest to Confirm Activators of 5'UTR Stem-Loop Driven Alpha-Synuclein mRNA Translation in H4 Neuroglioblastoma Cells. [Related pubchem assays (depositor defined):AID1813, AID1829]; type: functional
[6] = Luminescence Cell-Based Dose Response HTS to Identify Activators of 5'UTR Stem-Loop Driven Prion Protein mRNA Translation in H4-C Neuroglioblastoma Cells. [Related pubchem assays: 1829 (Project Summary), 1814 (Primary HTS)]; type: functional
[7] = Luminescence Cell-Based Dose Confirmation HTS to Identify Activators of 5'UTR Stem-Loop Driven Alpha-Synuclein mRNA Translation in H4 Neuroglioblastoma Cells. [Related pubchem assays: 1829 (Project Summary), 1814 (Primary HTS)]; type: functional
[8] = Luminescence Cell-Based Dose Response HTS to Identify Activators of Luciferase Translation or Activity in H4 […] Cells. [Related pubchem assays: 1829 (Project Summary), 1814 (Primary HTS)]; type: functional
H4 = assay: Luminescence Cell-Based Dose Response HTS to Identify Activators of 5'UTR Stem-Loop Driven Prion Protein mRNA Translation in H4 Neuroglioblastoma Cells. [Related pubchem assays: 1829 (Project Summary), 1814 (Primary HTS)]; type: functional; conditions: Homo sapiens
[9] = viability loss in HepG2 hepatoma cells – cell-based, cherry-picks, set 5, cytotoxicity control, dose response (AID 1053118); type: functional
Albumin = Albumin (Bos taurus, UniProt P02769); assay: Counterscreen for inhibitors of T-cell receptor (TCR)-CD3 interaction: Fluorescence-based biochemical high throughput dose response assay to identify inhibitors of T-cell receptor (TCR)-CD3 interaction using a TAMRA-labeled BSA probe.; type: functional
cells [10] = type: functional, cell-based
[11] = target: Nuclear receptor subfamily 0 group B member 1 (Homo sapiens, UniProt P51843); type: functional, cell-based;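 further: HEK293T cells transfected with SF-1 and DAX-1 plus StAR promoter luciferase reporter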
[12] = viability loss in HeLa cells – cytotoxicity control for MgcRacGAP inhibitor project, dose response (AID 624300); type: functional
[13] = target: T2, Rac GTPase-activating protein 1 (Homo sapiens, UniProt Q9H0H5); assay: blockers of MgcRacGAP-driven Rac1 GTP hydrolysis – biochemical, ADP Hunter fluorescence, primary and confirmatory, confirmation (AID 624330); type: functional
T2 sequence (Q9H0H5 whole entry): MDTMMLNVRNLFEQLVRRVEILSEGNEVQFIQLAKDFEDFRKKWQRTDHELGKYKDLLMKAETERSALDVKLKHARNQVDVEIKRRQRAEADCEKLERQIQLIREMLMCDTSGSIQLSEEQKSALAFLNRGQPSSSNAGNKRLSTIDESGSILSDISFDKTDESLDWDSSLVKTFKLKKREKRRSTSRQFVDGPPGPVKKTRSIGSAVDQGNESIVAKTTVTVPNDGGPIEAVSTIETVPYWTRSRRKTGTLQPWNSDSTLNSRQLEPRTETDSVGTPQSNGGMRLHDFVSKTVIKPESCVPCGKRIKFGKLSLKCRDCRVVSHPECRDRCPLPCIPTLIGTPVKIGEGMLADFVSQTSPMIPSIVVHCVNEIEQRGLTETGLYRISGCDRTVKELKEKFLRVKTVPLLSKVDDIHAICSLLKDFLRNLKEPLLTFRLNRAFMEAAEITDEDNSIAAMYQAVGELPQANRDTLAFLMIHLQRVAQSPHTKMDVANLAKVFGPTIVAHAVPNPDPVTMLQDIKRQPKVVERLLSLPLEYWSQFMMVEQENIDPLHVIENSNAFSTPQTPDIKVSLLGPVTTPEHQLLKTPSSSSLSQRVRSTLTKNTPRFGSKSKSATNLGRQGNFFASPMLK

[14] = target: Arf-GAP with SH3 domain, ANK repeat and PH domain-containing protein 1 (Homo sapiens, UniProt Q9ULH1); type: functional;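 further: biochemical fluorescence polarization dose–response screen measuring inhibition of ASAP1; ASAP1 GAP domain stimulating GTP hydrolysis by truncated human ARF1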
[15] = target: T3, Histone-lysine N-methyltransferase NSD2 (Homo sapiens, UniProt O96028); type: biochemical
T3 sequence (O96028 whole entry): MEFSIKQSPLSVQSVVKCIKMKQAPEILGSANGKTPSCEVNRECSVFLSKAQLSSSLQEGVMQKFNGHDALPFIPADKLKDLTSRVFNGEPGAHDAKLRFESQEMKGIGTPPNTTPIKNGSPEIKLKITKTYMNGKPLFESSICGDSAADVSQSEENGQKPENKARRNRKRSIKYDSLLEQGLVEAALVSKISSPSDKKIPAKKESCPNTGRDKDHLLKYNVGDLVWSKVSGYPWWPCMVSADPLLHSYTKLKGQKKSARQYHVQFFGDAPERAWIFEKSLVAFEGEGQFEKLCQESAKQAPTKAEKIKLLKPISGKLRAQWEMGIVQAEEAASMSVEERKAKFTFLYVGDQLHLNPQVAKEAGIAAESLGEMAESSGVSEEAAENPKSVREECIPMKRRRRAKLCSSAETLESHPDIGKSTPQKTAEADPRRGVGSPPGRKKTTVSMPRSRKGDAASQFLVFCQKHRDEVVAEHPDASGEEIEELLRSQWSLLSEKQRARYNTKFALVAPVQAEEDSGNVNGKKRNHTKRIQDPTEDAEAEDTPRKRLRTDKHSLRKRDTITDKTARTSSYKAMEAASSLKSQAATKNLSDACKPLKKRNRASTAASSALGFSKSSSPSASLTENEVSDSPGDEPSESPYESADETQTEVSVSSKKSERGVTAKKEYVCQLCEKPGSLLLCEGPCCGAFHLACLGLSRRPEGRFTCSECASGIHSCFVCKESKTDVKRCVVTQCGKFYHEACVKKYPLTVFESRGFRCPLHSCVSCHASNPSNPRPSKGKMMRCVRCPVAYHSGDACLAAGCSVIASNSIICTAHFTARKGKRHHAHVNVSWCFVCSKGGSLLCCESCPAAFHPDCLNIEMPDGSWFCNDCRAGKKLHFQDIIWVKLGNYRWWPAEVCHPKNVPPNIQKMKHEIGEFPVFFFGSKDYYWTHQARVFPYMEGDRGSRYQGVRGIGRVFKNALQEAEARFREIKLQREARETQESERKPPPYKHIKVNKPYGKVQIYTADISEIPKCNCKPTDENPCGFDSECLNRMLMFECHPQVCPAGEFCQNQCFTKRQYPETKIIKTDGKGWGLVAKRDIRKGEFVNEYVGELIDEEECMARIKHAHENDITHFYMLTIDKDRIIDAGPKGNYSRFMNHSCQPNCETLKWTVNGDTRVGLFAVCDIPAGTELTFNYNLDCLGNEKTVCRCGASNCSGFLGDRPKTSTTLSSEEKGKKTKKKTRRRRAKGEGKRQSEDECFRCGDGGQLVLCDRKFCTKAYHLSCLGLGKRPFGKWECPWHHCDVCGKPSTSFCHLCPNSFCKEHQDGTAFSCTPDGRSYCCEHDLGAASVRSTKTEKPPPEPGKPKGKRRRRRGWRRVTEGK

[16] = HGIII-sPLA2 enzyme inhibition potency – biochemical, QFRET, IC50, dose response (AID 743457);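 further: green fluorescence rise as the enzyme cleaves BODIPY PC-A2 in liposomes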
Beta-lactamase [17] = target: Beta-lactamase (Pseudomonas aeruginosa, UniProt Q79MP6);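 further: biochemical dose-response test of metallo-beta-lactamase enzyme inhibition, read out by epi-absorbance; purified recombinant IMP-1 metallo-beta-lactamase with nitrocefin as substrate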
Beta-lactamase [18] = target: Beta-lactamase (Salmonella choleraesuis (strain SC-B67), UniProt Q5J463)
Insulin-degrading enzyme [19] = target: T4, Insulin-degrading enzyme (Homo sapiens, UniProt P14735); assay: recombinant IDE activation, cell-free – biochemical, fluorescence polarization, counter-screen for IDE activator project, dose response (AID 588681)
T4 sequence (P14735 whole entry): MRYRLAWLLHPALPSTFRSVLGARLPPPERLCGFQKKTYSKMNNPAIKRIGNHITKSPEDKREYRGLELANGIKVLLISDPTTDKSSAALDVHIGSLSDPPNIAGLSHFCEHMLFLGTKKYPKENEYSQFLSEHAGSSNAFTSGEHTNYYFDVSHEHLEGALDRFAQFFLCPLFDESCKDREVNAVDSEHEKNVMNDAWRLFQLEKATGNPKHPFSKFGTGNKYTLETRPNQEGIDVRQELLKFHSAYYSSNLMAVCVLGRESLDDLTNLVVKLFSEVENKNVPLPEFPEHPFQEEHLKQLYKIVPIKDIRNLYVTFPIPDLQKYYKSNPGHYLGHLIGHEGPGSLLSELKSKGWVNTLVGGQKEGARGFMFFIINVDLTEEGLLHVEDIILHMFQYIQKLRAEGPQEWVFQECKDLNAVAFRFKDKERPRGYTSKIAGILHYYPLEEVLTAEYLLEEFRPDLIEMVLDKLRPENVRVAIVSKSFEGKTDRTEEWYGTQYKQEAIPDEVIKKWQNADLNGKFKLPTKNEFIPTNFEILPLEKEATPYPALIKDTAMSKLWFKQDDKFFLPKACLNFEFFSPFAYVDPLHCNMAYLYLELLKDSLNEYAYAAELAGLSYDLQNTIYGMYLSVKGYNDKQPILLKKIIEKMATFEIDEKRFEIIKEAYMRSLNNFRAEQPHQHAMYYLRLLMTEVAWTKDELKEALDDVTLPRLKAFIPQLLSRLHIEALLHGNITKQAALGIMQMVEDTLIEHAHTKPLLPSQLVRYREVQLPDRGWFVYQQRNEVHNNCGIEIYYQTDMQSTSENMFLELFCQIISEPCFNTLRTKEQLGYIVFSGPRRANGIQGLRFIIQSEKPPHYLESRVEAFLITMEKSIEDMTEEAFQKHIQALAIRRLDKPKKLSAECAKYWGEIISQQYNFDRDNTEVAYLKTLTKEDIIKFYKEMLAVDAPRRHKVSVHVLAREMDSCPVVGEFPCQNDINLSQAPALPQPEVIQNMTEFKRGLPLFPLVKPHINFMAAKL

Insulin-degrading enzyme [20] = target: T4, Insulin-degrading enzyme; assay: cellular IDE activation of Abeta substrate cleavage – fluorescence polarization, HEK cells, dose response (AID 588439); type: functional, cell-based
HEK293 [21] = assay: membrane integrity loss in HEK cells – cell-based, fluorescence, cytotoxicity control for IDE activator project, dose response (AID 588440); type: functional; conditions: Homo sapiens;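 further: cytotoxicity by LDH release measuring loss of membrane integrity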
HEK293 [22] = assay: optical interference in Abeta FP readout, dose response, artefact control for IDE activator project, biochemical, fluorescence polarization (AID 588442); type: functional, cell-based; conditions: Homo sapiens
[23] = target: Long-chain-fatty-acid--AMP ligase FadD28 (Mycobacterium tuberculosis, UniProt P9WQ59); assay: Fluorescence polarization aasay to screen for inhibitors that compete for the binding of FadD28 to a bisubstrate Measured in Biochemical System Using Plate Reader - 2147-01_Inhibitor_Dose_CherryPick_Activity.; type: functional, Mycobacterium tuberculosis H37Rv
Cytochrome P450 3A4 = Cytochrome P450 3A4 (Homo sapiens, UniProt P08684);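 further: CYP3A4 tested as one member of a cytochrome P450 panel screen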
Galanin receptor type 3 = Galanin receptor type 3 (Homo sapiens, UniProt O60755); assay: Fluorescence-based cell-based primary high throughput dose response assay to identify antagonists of the Galanin Receptor 3 (GalR3).; type: functional
cells [24] = type: functional, cell-based; conditions: HEK-CNG
HEK293 [25] = assay: cells; conditions: Homo sapiens
HEK293 [26] = assay: cells; conditions: Homo sapiens; remark: listed apart in the source
[27] = target: Scavenger receptor class B member 1 (Mus musculus, UniProt Q61009); assay: blockers of DiI-HDL lipid transfer via SR-BI – cell-based, ldlA[mSR-BI] CHO, DiI fluorescence, dry powder, set 10, dose response (AID 624029); type: functional
HeLa = assay: viability loss in HeLa cells – cell-based, ATP luminescence, cherry-pick samples, cytotoxicity control, dose response (AID 687004); type: functional; conditions: Homo sapiens
[28] = HEK293T viability loss – cell-based, ATP luminescence, dry powder, Set6, cytotoxicity control, dose response (AID 743142); type: functional; conditions: HEK293

T1 sequence (P07550 whole entry): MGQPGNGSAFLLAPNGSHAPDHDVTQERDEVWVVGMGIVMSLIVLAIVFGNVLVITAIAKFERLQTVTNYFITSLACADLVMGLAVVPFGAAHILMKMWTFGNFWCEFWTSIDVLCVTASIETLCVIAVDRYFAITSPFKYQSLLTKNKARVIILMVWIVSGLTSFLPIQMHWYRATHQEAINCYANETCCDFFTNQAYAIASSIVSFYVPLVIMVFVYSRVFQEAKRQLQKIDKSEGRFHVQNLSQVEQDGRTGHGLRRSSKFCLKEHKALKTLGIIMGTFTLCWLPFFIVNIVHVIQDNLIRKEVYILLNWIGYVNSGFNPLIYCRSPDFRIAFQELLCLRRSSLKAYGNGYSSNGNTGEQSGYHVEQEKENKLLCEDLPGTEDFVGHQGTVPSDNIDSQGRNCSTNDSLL
Sequence of Scavenger receptor class B member 1 (Q61009 whole entry): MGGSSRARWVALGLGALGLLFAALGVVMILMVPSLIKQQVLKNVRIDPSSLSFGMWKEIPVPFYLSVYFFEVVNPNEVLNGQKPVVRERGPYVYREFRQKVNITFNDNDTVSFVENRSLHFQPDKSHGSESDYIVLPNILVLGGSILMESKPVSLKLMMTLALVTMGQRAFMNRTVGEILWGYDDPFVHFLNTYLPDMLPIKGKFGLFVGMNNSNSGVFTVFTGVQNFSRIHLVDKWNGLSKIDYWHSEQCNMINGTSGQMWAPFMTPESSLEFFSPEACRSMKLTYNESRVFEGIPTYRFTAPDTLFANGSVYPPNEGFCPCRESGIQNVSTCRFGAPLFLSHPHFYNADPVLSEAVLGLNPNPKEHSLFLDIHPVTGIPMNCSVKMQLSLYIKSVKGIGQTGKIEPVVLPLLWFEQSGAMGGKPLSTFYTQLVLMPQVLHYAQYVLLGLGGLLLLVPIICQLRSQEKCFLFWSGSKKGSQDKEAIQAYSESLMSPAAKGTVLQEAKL
Sequence of Nuclear receptor subfamily 0 group B member 1 (P51843 whole entry): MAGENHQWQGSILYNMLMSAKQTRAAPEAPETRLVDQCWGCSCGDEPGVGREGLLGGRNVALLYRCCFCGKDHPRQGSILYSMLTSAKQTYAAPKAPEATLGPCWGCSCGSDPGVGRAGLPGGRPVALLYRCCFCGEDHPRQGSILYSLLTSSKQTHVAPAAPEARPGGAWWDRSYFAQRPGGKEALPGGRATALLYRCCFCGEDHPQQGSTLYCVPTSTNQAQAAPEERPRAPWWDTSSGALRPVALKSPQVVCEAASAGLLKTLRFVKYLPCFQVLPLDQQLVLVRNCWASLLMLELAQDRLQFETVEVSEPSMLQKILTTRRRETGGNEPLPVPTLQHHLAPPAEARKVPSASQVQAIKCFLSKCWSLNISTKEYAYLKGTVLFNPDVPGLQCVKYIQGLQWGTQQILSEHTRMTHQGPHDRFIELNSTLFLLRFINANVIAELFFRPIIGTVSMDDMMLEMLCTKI
Sequence of Galanin receptor type 3 (O60755 whole entry): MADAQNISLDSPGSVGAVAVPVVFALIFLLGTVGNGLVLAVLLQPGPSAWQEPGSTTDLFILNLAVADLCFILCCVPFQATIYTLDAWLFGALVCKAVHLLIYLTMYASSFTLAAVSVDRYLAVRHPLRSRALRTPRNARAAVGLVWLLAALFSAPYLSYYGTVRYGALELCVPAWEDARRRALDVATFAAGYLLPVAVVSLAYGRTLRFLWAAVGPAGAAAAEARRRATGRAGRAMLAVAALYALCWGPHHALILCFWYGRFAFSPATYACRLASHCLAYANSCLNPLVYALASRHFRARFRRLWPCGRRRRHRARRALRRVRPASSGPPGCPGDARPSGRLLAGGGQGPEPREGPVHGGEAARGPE
Sequence of Albumin (P02769 whole entry): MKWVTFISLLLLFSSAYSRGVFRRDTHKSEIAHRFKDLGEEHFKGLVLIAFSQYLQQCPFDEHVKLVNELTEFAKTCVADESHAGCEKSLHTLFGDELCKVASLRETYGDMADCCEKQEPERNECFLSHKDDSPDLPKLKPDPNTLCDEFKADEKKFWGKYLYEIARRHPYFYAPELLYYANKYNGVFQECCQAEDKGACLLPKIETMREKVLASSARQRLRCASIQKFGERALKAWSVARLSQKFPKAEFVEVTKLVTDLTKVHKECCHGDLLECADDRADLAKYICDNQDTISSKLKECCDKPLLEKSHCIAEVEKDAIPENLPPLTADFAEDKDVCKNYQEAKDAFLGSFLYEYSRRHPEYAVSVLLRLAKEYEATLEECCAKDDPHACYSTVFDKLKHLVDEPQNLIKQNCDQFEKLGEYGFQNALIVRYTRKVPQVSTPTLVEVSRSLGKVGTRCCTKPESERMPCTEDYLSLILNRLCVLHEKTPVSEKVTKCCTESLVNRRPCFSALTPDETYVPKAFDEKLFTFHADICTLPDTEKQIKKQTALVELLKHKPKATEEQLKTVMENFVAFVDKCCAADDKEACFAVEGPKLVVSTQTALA
Sequence of Beta-lactamase (Pseudomonas aeruginosa, UniProt Q79MP6) (Q79MP6 whole entry): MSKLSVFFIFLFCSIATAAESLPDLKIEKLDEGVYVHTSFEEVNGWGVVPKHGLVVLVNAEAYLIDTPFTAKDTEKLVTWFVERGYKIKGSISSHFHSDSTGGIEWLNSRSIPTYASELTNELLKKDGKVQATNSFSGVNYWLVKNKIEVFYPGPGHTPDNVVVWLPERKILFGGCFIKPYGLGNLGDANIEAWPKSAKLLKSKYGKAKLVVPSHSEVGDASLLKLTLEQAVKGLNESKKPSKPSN
Sequence of Voltage-dependent T-type calcium channel subunit alpha-1H (O95180 whole entry): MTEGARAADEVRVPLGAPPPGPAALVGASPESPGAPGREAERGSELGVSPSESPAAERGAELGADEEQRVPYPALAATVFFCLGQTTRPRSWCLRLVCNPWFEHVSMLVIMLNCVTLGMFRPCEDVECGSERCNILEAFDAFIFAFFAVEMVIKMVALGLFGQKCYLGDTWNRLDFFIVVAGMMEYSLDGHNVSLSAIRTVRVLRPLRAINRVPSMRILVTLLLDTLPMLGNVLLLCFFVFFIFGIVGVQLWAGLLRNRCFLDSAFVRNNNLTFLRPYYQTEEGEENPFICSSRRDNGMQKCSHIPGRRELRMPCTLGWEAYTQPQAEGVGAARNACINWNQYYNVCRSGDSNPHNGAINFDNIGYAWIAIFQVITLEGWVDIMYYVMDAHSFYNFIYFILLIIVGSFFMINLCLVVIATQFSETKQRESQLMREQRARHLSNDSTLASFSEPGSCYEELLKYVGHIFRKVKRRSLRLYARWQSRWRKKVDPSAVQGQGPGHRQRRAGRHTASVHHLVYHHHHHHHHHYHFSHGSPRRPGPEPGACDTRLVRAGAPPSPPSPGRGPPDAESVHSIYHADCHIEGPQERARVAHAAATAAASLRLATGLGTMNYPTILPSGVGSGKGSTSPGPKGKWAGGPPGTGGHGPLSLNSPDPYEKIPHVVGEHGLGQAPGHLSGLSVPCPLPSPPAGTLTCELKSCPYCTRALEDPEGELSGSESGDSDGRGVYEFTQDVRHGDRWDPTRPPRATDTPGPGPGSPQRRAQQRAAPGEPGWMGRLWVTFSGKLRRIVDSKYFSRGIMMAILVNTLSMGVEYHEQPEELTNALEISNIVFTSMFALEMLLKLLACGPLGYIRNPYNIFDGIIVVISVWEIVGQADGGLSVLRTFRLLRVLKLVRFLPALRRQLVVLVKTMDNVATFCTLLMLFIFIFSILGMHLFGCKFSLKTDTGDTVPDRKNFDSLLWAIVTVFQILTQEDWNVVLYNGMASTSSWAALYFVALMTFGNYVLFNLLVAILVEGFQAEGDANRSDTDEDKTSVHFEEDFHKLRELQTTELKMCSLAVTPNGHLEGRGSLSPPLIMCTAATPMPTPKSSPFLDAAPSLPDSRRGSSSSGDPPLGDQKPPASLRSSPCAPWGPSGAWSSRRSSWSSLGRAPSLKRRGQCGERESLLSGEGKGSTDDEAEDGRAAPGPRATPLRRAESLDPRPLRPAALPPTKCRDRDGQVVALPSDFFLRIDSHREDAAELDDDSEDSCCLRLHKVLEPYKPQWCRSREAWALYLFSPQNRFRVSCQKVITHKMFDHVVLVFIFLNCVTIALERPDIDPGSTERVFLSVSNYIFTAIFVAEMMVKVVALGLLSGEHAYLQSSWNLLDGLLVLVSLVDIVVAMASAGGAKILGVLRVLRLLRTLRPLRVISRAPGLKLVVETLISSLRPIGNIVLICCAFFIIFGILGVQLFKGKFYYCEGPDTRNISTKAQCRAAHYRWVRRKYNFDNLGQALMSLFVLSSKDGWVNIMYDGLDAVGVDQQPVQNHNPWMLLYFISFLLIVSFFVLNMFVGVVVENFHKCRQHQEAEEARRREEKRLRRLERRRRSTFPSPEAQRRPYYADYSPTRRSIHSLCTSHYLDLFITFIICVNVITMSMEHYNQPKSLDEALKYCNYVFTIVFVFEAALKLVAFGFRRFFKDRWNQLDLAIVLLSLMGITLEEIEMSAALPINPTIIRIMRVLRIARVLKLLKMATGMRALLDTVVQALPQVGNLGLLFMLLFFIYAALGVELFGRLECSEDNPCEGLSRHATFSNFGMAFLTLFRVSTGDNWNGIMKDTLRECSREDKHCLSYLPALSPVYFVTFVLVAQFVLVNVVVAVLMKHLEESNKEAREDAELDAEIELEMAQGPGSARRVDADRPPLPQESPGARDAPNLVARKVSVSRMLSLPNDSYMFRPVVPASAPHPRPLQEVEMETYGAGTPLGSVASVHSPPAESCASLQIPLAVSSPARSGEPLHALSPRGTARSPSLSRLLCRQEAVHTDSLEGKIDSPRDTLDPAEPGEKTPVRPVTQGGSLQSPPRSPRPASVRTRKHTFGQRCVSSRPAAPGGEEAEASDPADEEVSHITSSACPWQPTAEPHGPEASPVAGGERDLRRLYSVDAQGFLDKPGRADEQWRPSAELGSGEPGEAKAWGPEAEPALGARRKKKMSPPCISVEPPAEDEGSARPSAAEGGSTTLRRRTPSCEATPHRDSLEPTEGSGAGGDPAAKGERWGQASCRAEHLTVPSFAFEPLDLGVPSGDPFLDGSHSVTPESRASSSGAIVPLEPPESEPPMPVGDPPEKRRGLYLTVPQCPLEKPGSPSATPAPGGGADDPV

Compound: CN(Cc1ccccc1)S(=O)(=O)c1ccc(NS(=O)(=O)Cc2ccccc2)cc1
- EC50 [1]: 3.46 µM (active)
- EC50 [2]: 1.25 µM (active)
- EC50 [3]: 0.0609 µM (active)

Compound: O=c1c2cc(N3CCOCC3)ccc2[nH]c(=S)n1Cc1ccc(Cl)cc1
- EC50 [4]: 2.96 µM (active)
- EC50 [5]: 0.719 µM (active)
- EC50 [6]: 4.66 µM (active)
- EC50 [7]: 5.35 µM (active)
- EC50 [8]: 66.7 µM (active)
- EC50 (H4): 5.33 µM (active)
- AC50 [9]: > 52 µM (inactive)

Compound: O=C(NNC(=O)c1cc2ccccc2cc1O)Nc1ccc(F)cc1F
- IC50 (Albumin): > 94.1 µM (inactive)

Compound: O=C1c2ccccc2C(=O)N1CCOc1ccccc1Br
- IC50 (cells [10]): > 67.5 µM (inactive)
- IC50 [11]: > 67.5 µM (inactive)

Compound: CN(C)c1ccc(/C=C/c2cc[n+](C)c3ccccc23)cc1.[O-][Cl+3]([O-])([O-])[O-]
- CC50 [12]: 41.1 µM (active)
- IC50 [13]: 36.1 µM (active)
- IC50 [14]: 21.4 µM (inactive)
- AC50 [15]: 11.7 µM (active)
- IC50 [16]: 28.6 µM (inactive)

Compound: N#CC(C#N)=C1C=C2C=C(N3CCOCC3)CCC2CC1 (stereo not drawn)
- IC50 (Beta-lactamase [17]): 6.86 µM (active)
- IC50 (Beta-lactamase [18]): 1.49 µM (active)
- EC50 (Insulin-degrading enzyme [19]): > 54.7 µM (inactive)
- EC50 (Insulin-degrading enzyme [20]): > 54.7 µM (inactive)
- IC50 (HEK293 [21]): > 89.1 µM (inactive)
- EC50 (HEK293 [22]): > 54.7 µM (inactive)

Compound: Cc1cccc(NC(=O)Cn2c(=O)oc3ccccc32)c1
- AC50 [23]: 5.47 µM (active)
- AC50 (Cytochrome P450 3A4): 25.1 µM (inconclusive)

Compound: CCc1nc2sc(C#N)c(N)c2c2c1CCCC2
- IC50 (Galanin receptor type 3): > 3.32 µM (active)
- EC50 (cells [24]): > 29.9 µM (inactive)
- EC50 (HEK293 [25]): > 59.6 µM (inactive)
- EC50 (HEK293 [26]): > 59.6 µM (inactive)

Compound: CC(C)NC(=O)Nc1ccc2c(c1)C(=O)N([C@H](C)CO)C[C@@H](C)[C@@H](CN(C)S(=O)(=O)c1ccc(Cl)cc1)O2
- AC50 [27]: 39.9 µM (active)

Compound: C[C@@H]1CN([C@@H](C)CO)C(=O)Cc2cc(NC(=O)Nc3cccc4ccccc34)ccc2O[C@@H]1CN(C)S(=O)(=O)c1cccs1
- AC50 (HeLa): 32.3 µM (active)

Compound: O=C(CCNC(=O)c1ccc(F)cc1)N[C@@H]1CCCc2ccccc21
- AC50 [28]: 16.5 µM (active)

Reference: ChEMBL document CHEMBL1201862, “PubChem BioAssay data set” (2004)
